# Experimental data: US20220169632A1, “METHODS AND MATERIALS FOR INCREASING OR MAINTAINING NICOTINAMIDE MONONUCLEOTIDE ADENYLYL TRANSFERASE-2 (NMNAT2) POLYPEPTIDE LEVELS” (University of Pittsburgh - Of the Commonwealth System of …, priority 2019, published 2022)
# System: NMNAT2
# Assay: NMNAT2-Hibit nano-luciferase activity in stably transfected U87MG cells, various concentrations, 24 hours
# Type: cell-based
# Details: U87MG cells stably transfected with NMNAT2-Hibit luc plasmid
# Method: Selected compounds were tested in vitro. U87MG cells were stably transfected with NMNAT2-Hibit luc plasmid. Cells were treated with a test compound at various concentrations for 24 hours. Cells were then collected and assayed for nano-luciferase activity.
compound,measurement,value
Cc1ccccc1CNC(=O)Cn1cc2c3c(cccc31)C(=O)N(Cc1cccc(F)c1)CC2 [BC20356],E: compound efficacy for NMNAT2 activation (concentration giving >25% increase in NMNAT2 luciferase activity),+ (“+” >25% increase in NMNAT2 luciferase activity at >25 μM.)
COc1ccccc1CNC(=O)CCCc1cn(Cc2ccccc2F)c2ccccc12 [BC20127],E: compound efficacy for NMNAT2 activation (concentration giving >25% increase in NMNAT2 luciferase activity),++ (“++” >25% increase in NMNAT2 luciferase activity at >1 μM ≤25 μM.)
Cc1c(C)n(Cc2ccccc2F)c2ccc(C(=O)N(CCCN3CCOCC3)Cc3ccco3)cc12 [BC20263],E: compound efficacy for NMNAT2 activation (concentration giving >25% increase in NMNAT2 luciferase activity),++ (“++” >25% increase in NMNAT2 luciferase activity at >1 μM ≤25 μM.)
Cc1ccc(C)c(Cn2c3c(c4ccccc42)CN(C(=O)NCc2ccco2)CC3)c1 [BC20243],E: compound efficacy for NMNAT2 activation (concentration giving >25% increase in NMNAT2 luciferase activity),+++ (“+++” >25% increase in NMNAT2 luciferase activity at ≤1 μM.)
O=C(NCc1cccnc1)C1CCc2c(c3ccccc3n2Cc2ccncc2)C1 (centres unmarked) [BC20317],E: compound efficacy for NMNAT2 activation (concentration giving >25% increase in NMNAT2 luciferase activity),+ (“+” >25% increase in NMNAT2 luciferase activity at >25 μM.)
Cc1ccc(C)c(Cn2c(C)c([C@H]3C[C@@H]3C(=O)NCc3ccco3)c3ccccc32)c1 (racemic) [BC20323],E: compound efficacy for NMNAT2 activation (concentration giving >25% increase in NMNAT2 luciferase activity),+ (“+” >25% increase in NMNAT2 luciferase activity at >25 μM.)
Cc1ccc(CNC(=O)c2ccc3c(c2)c(C)c(C)n3Cc2cccc(F)c2)o1 [BC20109],E: compound efficacy for NMNAT2 activation (concentration giving >25% increase in NMNAT2 luciferase activity),++ (“++” >25% increase in NMNAT2 luciferase activity at >1 μM ≤25 μM.)
O=C(NCCc1ccccc1)N1CCc2c(c3ccccc3n2Cc2ccncc2)C1 [BC20335],E: compound efficacy for NMNAT2 activation (concentration giving >25% increase in NMNAT2 luciferase activity),+ (“+” >25% increase in NMNAT2 luciferase activity at >25 μM.)
COc1ccccc1CNC(=O)[C@H]1C[C@@H]1c1c(C)n(Cc2cc(C)ccc2C)c2ccccc12 (racemic) [BC20324],E: compound efficacy for NMNAT2 activation (concentration giving >25% increase in NMNAT2 luciferase activity),+ (“+” >25% increase in NMNAT2 luciferase activity at >25 μM.)
Cc1cccc(CNC(=O)C2CCc3c(c4ccccc4n3Cc3cc(C)ccc3C)C2)c1 (centres unmarked) [BC20186],E: compound efficacy for NMNAT2 activation (concentration giving >25% increase in NMNAT2 luciferase activity),+ (“+” >25% increase in NMNAT2 luciferase activity at >25 μM.)
COc1cccc(CNC(=O)CCc2c(C(F)F)n(Cc3cc(C)ccc3C)c3ccccc23)c1 [BC20398],E: compound efficacy for NMNAT2 activation (concentration giving >25% increase in NMNAT2 luciferase activity),++ (“++” >25% increase in NMNAT2 luciferase activity at >1 μM ≤25 μM.)
Cc1ccc(Cn2c3c(c4ccccc42)C(C(=O)NCc2cccc(C)c2)CCC3)cc1 (centres unmarked) [BC20386],E: compound efficacy for NMNAT2 activation (concentration giving >25% increase in NMNAT2 luciferase activity),++ (“++” >25% increase in NMNAT2 luciferase activity at >1 μM ≤25 μM.)
Cc1ccc(C)c(Cn2cc([C@H]3C[C@@H]3C(=O)N(CCN(C)C)Cc3ccco3)c3ccccc32)c1 (racemic) [BC20364],E: compound efficacy for NMNAT2 activation (concentration giving >25% increase in NMNAT2 luciferase activity),+++ (“+++” >25% increase in NMNAT2 luciferase activity at ≤1 μM.)
O=C(NCc1cccnc1)C1CCCc2c1c1ccccc1n2Cc1cccc(F)c1 (centres unmarked) [BC20379],E: compound efficacy for NMNAT2 activation (concentration giving >25% increase in NMNAT2 luciferase activity),++ (“++” >25% increase in NMNAT2 luciferase activity at >1 μM ≤25 μM.)
Cc1ccc(Cn2cc(C3CCN(CCc4cccc(C)c4)C(=O)C3)c3ccccc32)cc1 (centres unmarked) [BC20268],E: compound efficacy for NMNAT2 activation (concentration giving >25% increase in NMNAT2 luciferase activity),+ (“+” >25% increase in NMNAT2 luciferase activity at >25 μM.)
Cc1ccc(Cn2cc([C@H]3C[C@@H]3C(=O)NCc3ccc(C)o3)c3ccccc32)cc1 (racemic) [BC20294],E: compound efficacy for NMNAT2 activation (concentration giving >25% increase in NMNAT2 luciferase activity),+ (“+” >25% increase in NMNAT2 luciferase activity at >25 μM.)
Cc1ccc(C)c(Cn2cc([C@H]3C[C@@H]3C(=O)NCc3cccc(F)c3)c3ccccc32)c1 (racemic) [BC20346],E: compound efficacy for NMNAT2 activation (concentration giving >25% increase in NMNAT2 luciferase activity),+ (“+” >25% increase in NMNAT2 luciferase activity at >25 μM.)
Cc1cccc(CNC(=O)CCc2c(C(F)F)n(Cc3cc(C)ccc3C)c3ccccc23)c1 [BC20396],E: compound efficacy for NMNAT2 activation (concentration giving >25% increase in NMNAT2 luciferase activity),++ (“++” >25% increase in NMNAT2 luciferase activity at >1 μM ≤25 μM.)
Cc1ccccc1Cn1c(C)c(C)c2cc(C(=O)NCc3ccncc3)ccc21 [BC20209],E: compound efficacy for NMNAT2 activation (concentration giving >25% increase in NMNAT2 luciferase activity),++ (“++” >25% increase in NMNAT2 luciferase activity at >1 μM ≤25 μM.)
Cc1ccccc1Cn1c(C)c(C)c2cc(C(=O)NCC3CCCO3)ccc21 (centres unmarked) [BC20201],E: compound efficacy for NMNAT2 activation (concentration giving >25% increase in NMNAT2 luciferase activity),+ (“+” >25% increase in NMNAT2 luciferase activity at >25 μM.)
Cc1ccc(C)c(Cn2c(C(F)F)c(CCC(=O)NCc3ccccc3F)c3ccccc32)c1 [BC20393],E: compound efficacy for NMNAT2 activation (concentration giving >25% increase in NMNAT2 luciferase activity),++ (“++” >25% increase in NMNAT2 luciferase activity at >1 μM ≤25 μM.)
O=C(Cn1c2c(c3ccccc31)CC(C(=O)NCc1ccco1)CC2)NCc1cccc(F)c1 (centres unmarked) [BC20286],E: compound efficacy for NMNAT2 activation (concentration giving >25% increase in NMNAT2 luciferase activity),++ (“++” >25% increase in NMNAT2 luciferase activity at >1 μM ≤25 μM.)
Cc1ccc(CNC(=O)Cn2c3c(c4ccccc42)CC(C(=O)NCc2ccco2)CC3)o1 (centres unmarked) [BC20285],E: compound efficacy for NMNAT2 activation (concentration giving >25% increase in NMNAT2 luciferase activity),++ (“++” >25% increase in NMNAT2 luciferase activity at >1 μM ≤25 μM.)
